C[C@@H]1OC(=O)[C@H](C)OC1=O
Conditions | solubility (mole fraction)
in acetone, 278.95 K | 0.217
in acetone, 286.95 K | 0.247
in acetone, 290.65 K | 0.265
in acetone, 294.65 K | 0.283
in acetone, 299.35 K | 0.307
in acetone, 304.95 K | 0.335
in acetone, 309.15 K | 0.36
in acetone, 314.35 K | 0.394
in acetone, 319.05 K | 0.423
in acetone, 323.35 K | 0.455
in acetone, 328.25 K | 0.49
in ethanol, 283.95 K | 0.00281
in ethanol, 288.65 K | 0.00423
in ethanol, 295.35 K | 0.00878
in ethanol, 299.95 K | 0.0135
in ethanol, 303.45 K | 0.031
in ethanol, 310.15 K | 0.044
in ethanol, 314.65 K | 0.0569
in ethanol, 319.95 K | 0.081
in ethanol, 325.15 K | 0.115
in ethanol, 329.25 K | 0.161
in ethanol, 333.25 K | 0.258
in ethanol, 336.45 K | 0.337
in ethyl acetate, 277.05 K | 0.115
in ethyl acetate, 282.35 K | 0.131
in ethyl acetate, 287.65 K | 0.147
in ethyl acetate, 296.15 K | 0.178
in ethyl acetate, 301.65 K | 0.199
in ethyl acetate, 305.15 K | 0.221
in ethyl acetate, 308.35 K | 0.242
in ethyl acetate, 313.15 K | 0.272
in ethyl acetate, 318.25 K | 0.311
in ethyl acetate, 324.95 K | 0.369
in ethyl acetate, 331.35 K | 0.436
in ethyl acetate, 336.35 K | 0.491
in isopropanol, 279.65 K | 0.00822
in isopropanol, 290.95 K | 0.0131
in isopropanol, 295.65 K | 0.017
in isopropanol, 299.95 K | 0.0208
in isopropanol, 304.15 K | 0.0256
in isopropanol, 309.35 K | 0.0338
in isopropanol, 314.15 K | 0.0455
in isopropanol, 318.65 K | 0.0605
in isopropanol, 323.65 K | 0.0854
in isopropanol, 329.15 K | 0.127
in isopropanol, 333.15 K | 0.177
in methanol, 278.25 K | 0.0153
in methanol, 282.15 K | 0.0221
in methanol, 284.15 K | 0.0231
in methanol, 290.25 K | 0.0302
in methanol, 294.25 K | 0.0373
in methanol, 298.85 K | 0.0474
in methanol, 302.25 K | 0.0614
in methanol, 308.15 K | 0.0895
in methanol, 311.45 K | 0.116
in methanol, 315.75 K | 0.126
in methanol, 322.25 K | 0.204
in methanol, 332.55 K | 0.282
in methanol, 333.15 K | 0.337
in toluene, 278.55 K | 0.0128
in toluene, 283.65 K | 0.0211
in toluene, 286.95 K | 0.0231
in toluene, 291.15 K | 0.029
in toluene, 298.35 K | 0.0371
in toluene, 303.15 K | 0.0436
in toluene, 308.15 K | 0.0666
in toluene, 315.95 K | 0.0854
in toluene, 321.65 K | 0.108
in toluene, 324.25 K | 0.135
in toluene, 326.95 K | 0.157
